Results on 41 compounds are retold here after patent US5081131A, “Omega-((hetero)alkyl)benz(cd)-indol-2-amines” (American Cyanamid Company, priority 1988, dated 1992).

This experiment has as its system spontaneously hypertensive rats. As to the kind of experiment: Hypotensive activity in spontaneously hypertensive rats (MABP). Type of experiment: in vivo, rat (Okamoto strain). The note with it: SHR, gavage, two doses of 10 mg/kg or less 24 h apart, MABP at 28 h; average baseline 160±1.5 mm Hg. The procedure:
The novel compounds of the present invention are active hypotensive agents and were tested for hypotensive activity by the method of P. S. Chan and D. Poorvin, Clinical and Experimental Hypertension, 1 (6), 817-830 (1979). Male, 16 week old, spontaneously hypertensive rats of the Okamoto strain, from Taconic Farms, Germantown, N.Y., having an average mean arterial blood pressure of 160±1.5 mm of mercury, were used in the test. One to 4 rats were used per test compound. A rat was dosed by gavage with a test compound, suspended in 2% pre-boiled starch at a concentration of 50 mg/ml, at a doses of 10 mg/kg of body weight or less, with 0.9% sodium chloride loading at a dose of 25 ml/kg of body weight. A second identical dose of the test compound, without sodium chloride loading was given 24 hours later. At 28 hours after initial dose the mean arterial blood pressure (MABP) was measured. The procedure was repeated in a second and third rat when necessary.
Take `CC(CNC1=Nc2c(Cl)cc(Cl)c3cccc1c23)Cn1ccnc1` (centres unmarked) [6,8-Dichloro-N-(3-(1H-imidazol-1-yl)-2-methylpropyl)benz(cd)indol-2-amine sesqui-furamate]: the “Avg. MABP in mm Hg (No. of Rats)” value is on record as 116 mm Hg. As to `CC(CCNC1=Nc2c(Cl)cc(Cl)c3cccc1c23)n1ccnc1.Cl.Cl` (centres unmarked) [6,8-Dichloro-N-(3-(1H-imidazol-1-yl)butyl)benz(cd)indol-2-amine dihydrochloride], the “Avg. MABP in mm Hg (No. of Rats)” value is recorded as 134 mm Hg. As for `Cl.Cl.Clc1cc(Cl)c2cccc3c2c1N=C3NCCCCCCCn1ccnc1` [6,8-Dichloro-N-(7-(1H-imidazol-1-yl)heptyl)benz(cd)indol-2-amine dihydrochloride], the “Avg. MABP in mm Hg (No. of Rats)” value stood at 130 mm Hg. Turning to `CC(CNC1=Nc2ccc(Br)c3cccc1c23)Cn1ccnc1.Cl.Cl` (centres unmarked) [6-Bromo-N-(3-(1H-imidazol-1-yl)-2-methylpropyl)benz(cd)indol-2-amine, dihydrochloride], the “Avg. MABP in mm Hg (No. of Rats)” value is 107 mm Hg.

As to `Clc1ccc2c3c(cccc13)C(NCCCn1ccnc1)=N2` [6-Chloro-N-(3-(1H-imidazol-l-yl)propyl)benz(cd)indol-2-amine], the “Avg. MABP in mm Hg (No. of Rats)” value came out at 124 mm Hg. Take `Fc1ccc2c3c(cccc13)C(NCCCn1ccnc1)=N2` [6-Fluoro-N-(3-(1H-imidazol-1-yl)propyl)benz(cd)indol-2-amine]: the “Avg. MABP in mm Hg (No. of Rats)” value stood at 94 mm Hg.

Take `C(=C/Cn1ccnc1)/CNC1=Nc2cccc3cccc1c23.O=C(O)/C=C/C(=O)O` [(Z)-N-(4-(1H-imidazol-1-yl)-2-butenyl)benz(cd)indol-2-amine, fumarate]: the “Avg. MABP in mm Hg (No. of Rats)” value is on record as 102 mm Hg. Consider `Clc1ccc(C(Cn2cncn2)NC2=Nc3cccc4cccc2c34)cc1.O=C(O)/C=C/C(=O)O` (centres unmarked) [N-(1-(4-Chlorophenyl)-2-(1H-1,2,4-triazol-1-yl)ethyl)benz(cd)indol-2-amine fumarate], for which the “Avg. MABP in mm Hg (No. of Rats)” value was 142 mm Hg. `O=C(O)/C=C/C(=O)O.c1cc2c3c(cccc3c1)C(NCCn1ccnc1)=N2` [N-(2-(1H-imidazol-1-yl)ethyl)benz(cd)indol-2-amine, fumarate]: the “Avg. MABP in mm Hg (No. of Rats)” value turned out to be 97 mm Hg.

`O=C(O)/C=C/C(=O)O.c1cc2c3c(cccc3c1)C(NCCOCCn1ccnc1)=N2` [N-(2-(2-(1H-imidazol-1-yl)ethoxy)ethyl)benz(cd)indol-2-amine, fumarate]: the “Avg. MABP in mm Hg (No. of Rats)” value stood at 108 mm Hg. With `O=C(O)/C=C/C(=O)O.c1ccc(CSCCNC2=Nc3cccc4cccc2c34)nc1` [N-(2-((2-pyridinylmethyl)thio)ethyl)benz(cd)indol-2-amine fumarate] the figure was 143 mm Hg; with `CCC(CC)(CNC1=Nc2cccc3cccc1c23)Cn1ccnc1` [N-(2-Ethyl-2-(1H-imidazol-1-yl)methyl)butylbenz(cd)indol-2-amine sesqui-fumarate], 112 mm Hg; with `CN(CCCn1ccnc1)C1=Nc2cccc3cccc1c23` [N-(3-1H-imidazol-1-yl)propyl)-N-methylbenz(cd)indol-2-amine], 95 mm Hg. Under `O=C(O)/C=C/C(=O)O.c1cc2c3c(cccc3c1)C(NCCCn1cccn1)=N2` [N-(3-(1H-Pyrazol-1-yl)propyl)benz(cd)indol-2-amine fumarate] stands 141 mm Hg. Under `O=C(O)/C=C/C(=O)O.O=C(O)/C=C/C(=O)O.OC(CNC1=Nc2cccc3cccc1c23)Cn1ccnc1` (centres unmarked) [N-(3-(1H-imidazol-1-yl)-2-hydroxypropyl)benz(cd)indol-2-amine bis-fumarate] stands 132 mm Hg. As for `O=C(O)/C=C/C(=O)O.O=C(O)/C=C/C(=O)O.c1cc2c3c(cccc3c1)C(NCCCn1ccnc1)=N2` [N-(3-(1H-imidazol-1-yl)propyl)benz(cd)indol-2-amine, bis-fumarate], the “Avg. MABP in mm Hg (No. of Rats)” value is 81 mm Hg. Under `Cc1csc(CCCNC2=Nc3cccc4cccc2c34)n1.O=C(O)/C=C/C(=O)O` [N-(3-(4-Methyl-2-thiazolyl)propyl)benz(cd)indol-2-amine fumarate] stands 122 mm Hg. With `Cc1cn(CCCNC2=Nc3cccc4cccc2c34)cn1.Cl.Cl` [N-(3-(4-methyl-1H-imidazol-1-yl)propyl)benz(cd)indol-2-amine, dihydrochloride], the “Avg. MABP in mm Hg (No. of Rats)” value was determined as 106 mm Hg. Under `c1cc2c3c(cccc3c1)C(NOCCCCn1ccnc1)=N2` [N-(4-(1H-imidazol-1-yl)butoxy)benz(cd)indol-2-amine] stands 111 mm Hg; under `C[N+]1=C(NCCCCn2cc[n+](C)c2)c2cccc3cccc1c23.[I-].[I-]` [N-(4-(1H-imidazol-1-yl)butyl)benz(cd)indol-2-amine dimethiodide], 110 mm Hg; under `c1cc2c3c(cccc3c1)C(NCCCCn1ccnc1)=N2` [N-(4-(1H-imidazol-1-yl)butyl)benz(cd)indol-2-amine, hydriodide], 74 mm Hg. On to `c1cncc(CCCCNC2=Nc3cccc4cccc2c34)c1` [N-(4-(3-Pyridinyl)butyl)benz(cd)indol-2-amine sesqui-fumarate], for which the “Avg. MABP in mm Hg (No. of Rats)” value was determined as 95 mm Hg. With `C(=Cc1cccnc1)CCCNC1=Nc2cccc3cccc1c23` [N-(5-(3-Pyridinyl)-4-pentenyl)benz(cd)indol-2-amine sesqui-fumarate] the figure was 140 mm Hg; with `c1cc2c3c(cccc3c1)C(NCCCCCCCn1ccnc1)=N2` [N-(7-(1H-imidazol-1-yl)heptyl)benz(cd)indol-2-amine], 127 mm Hg; with `Cl.Cl.c1cc2c3c(cccc3c1)C(NCCCCCCCCCCn1ccnc1)=N2` [N-(10-(1H-imidazol-1-yl)decyl)benz(cd)indol-2-amine, dihydrochloride], 124 mm Hg. Under `O=C(c1ccco1)N(CCCCn1ccnc1)C1=Nc2cccc3cccc1c23` [N-(Benz(cd)indol-2-yl)-N-(4-(1H-imidazol-1-yl)butyl)-2-furancarboxamide] stands 96 mm Hg; under `Cc1ccc(C(=O)N(CCCCn2ccnc2)C2=Nc3cccc4cccc2c34)cc1` [N-(Benz(cd)indol-2-yl)-N-(4-(1H-imidazol-1-yl)butyl)-4-methylbenzamide], 82 mm Hg. `O=C(c1ccccc1Cl)N(CCCCn1ccnc1)C1=Nc2cccc3cccc1c23` [N-Benz(cd)indol-2-yl-2-chloro-N-(4-(1-imidazol-1-yl)butyl)benzamide]: the “Avg. MABP in mm Hg (No. of Rats)” value was found to be 80 mm Hg. Under `O=C(c1ccc(Cl)c(Cl)c1)N(CCCCn1ccnc1)C1=Nc2cccc3cccc1c23` [N-Benz(cd)indol-2-yl-3,4-dichloro-N-(4-(1H-imidazol-1-yl)butyl)benzamide] stands 96 mm Hg. With `CC(=O)N(CCCn1cncn1)C1=Nc2cccc3cccc1c23` [N-Benz(cd)indol-2-yl-N-(3-(1H-1,2,4-triazol-1-yl)propyl)acetamide] the figure was 118 mm Hg; with `O=C(Nc1ccccc1)N(CCCn1ccnc1)C1=Nc2cccc3cccc1c23` [N-Benz(cd)indol-2-yl-N-(3-(1H-imidazol-1-yl)propyl)-N'-phenylurea], 145 mm Hg. Take `CC(=O)N(CCCn1ccnc1)C1=Nc2cccc3cccc1c23` [N-Benz(cd)indol-2-yl-N-(3-(1H-imidazol-1-yl)propyl)acetamide]: the “Avg. MABP in mm Hg (No. of Rats)” value worked out at 102 mm Hg. Turning to `O=C(c1cccc(C(F)(F)F)c1)N(CCCCn1ccnc1)C1=Nc2cccc3cccc1c23` [N-Benz(cd)indol-2-yl-N-(4-(1H-imidazol 1-yl)butyl)-3-trifluoromethylbenzamide], the “Avg. MABP in mm Hg (No. of Rats)” value turned out to be 77 mm Hg. Turning to `O=C(c1cccs1)N(CCCCn1ccnc1)C1=Nc2cccc3cccc1c23` [N-Benz(cd)indol-2-yl-N-(4-(1H-imidazol-1-yl)butyl)-2-thiophenecarboxamide], the “Avg. MABP in mm Hg (No. of Rats)” value is recorded as 86 mm Hg.

With `O=C(c1ccc(F)cc1)N(CCCCn1ccnc1)C1=Nc2cccc3cccc1c23` [N-Benz(cd)indol-2-yl-N-(4-(1H-imidazol-1-yl)butyl)-4-fluorobenzamide], the “Avg. MABP in mm Hg (No. of Rats)” value was 85 mm Hg. With `O=C(c1ccccc1)N(CCCCn1ccnc1)C1=Nc2cccc3cccc1c23` [N-Benz(cd)indol-2-yl-N-(4-(1H-imidazol-1-yl)butyl)benzamide] the figure was 80 mm Hg; with `CCCCCCC(=O)N(CCCCn1ccnc1)C1=Nc2cccc3cccc1c23` [N-Benz(cd)indol-2-yl-N-(4-(1H-imidazol-1-yl)butyl)heptanamide], 76 mm Hg; with `CCCCCC(=O)N(CCCCn1ccnc1)C1=Nc2cccc3cccc1c23` [N-Benz(cd)indol-2-yl-N-(4-(1H-imidazol-1-yl)butyl)hexanamide], 102 mm Hg. Under `CCCCC(=O)N(CCCCn1ccnc1)C1=Nc2cccc3cccc1c23` [N-Benz(cd)indol-2-yl-N-(4-(1H-imidazol-1-yl)butyl)pentanamide] stands 84 mm Hg. Under `CCC(=O)N(CCCCn1ccnc1)C1=Nc2cccc3cccc1c23` [N-Benz(cd)indol-2-yl-N-(4-(1H-imidazol-1-yl)butyl)propanamide] stands 83 mm Hg; under `O=C(c1cccc(C(F)(F)F)c1)N(CCCCc1cccnc1)C1=Nc2cccc3cccc1c23` [N-Benz(cd)indol-2-yl-N-(4-(3-pyridinyl)butyl)-3-trifluoromethylbenzamide], 115 mm Hg.
